The target of one test is CDK2/Cyclin E1 (Homo sapiens, UniProt P24941). Kind of test: CDK2/Cyclin E1 Biochemical Assay (TR-FRET), 0.060 mM ATP. To be noted: 0.15 μM Rb (Ser780)-biotin substrate, pH7.0, 60 min preincubation, 120 min reaction, room temperature. The method in brief:
(§1)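 Percent inhibition was derived from the 665 nm/620 nm TR-FRET ratio after a 120-minute room-temperature reaction on 0.15 μM Rb (Ser780)-biotin, preceded by 60-minute enzyme–compound preincubation. IC50 came from four-parameter logistic fitting.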
(TR-FRET usually uses a lanthanide donor and a delayed reading to cut background.)

For the next test, the target named is CDK1/Cyclin B1 (Homo sapiens, UniProt P06493). Kind of test: CDK1/Cyclin B1 Biochemical Assay (TR-FRET), 0.015 mM ATP. To be noted: 0.15 μM Rb (Ser780)-biotin substrate, pH7.0, 60 min preincubation, 120 min reaction, room temperature. An outline of the steps:
as §1

CDK1/Cyclin B1, sequence (P06493 whole entry): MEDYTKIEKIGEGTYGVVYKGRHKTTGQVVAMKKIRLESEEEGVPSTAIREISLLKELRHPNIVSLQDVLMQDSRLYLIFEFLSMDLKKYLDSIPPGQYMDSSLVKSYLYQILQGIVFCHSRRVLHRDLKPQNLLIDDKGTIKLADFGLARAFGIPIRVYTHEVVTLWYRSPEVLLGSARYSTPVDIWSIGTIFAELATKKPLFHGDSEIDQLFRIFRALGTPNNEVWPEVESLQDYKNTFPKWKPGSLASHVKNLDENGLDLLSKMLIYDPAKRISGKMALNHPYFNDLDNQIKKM
CDK1/Cyclin B1, sequence (P14635 whole entry partner): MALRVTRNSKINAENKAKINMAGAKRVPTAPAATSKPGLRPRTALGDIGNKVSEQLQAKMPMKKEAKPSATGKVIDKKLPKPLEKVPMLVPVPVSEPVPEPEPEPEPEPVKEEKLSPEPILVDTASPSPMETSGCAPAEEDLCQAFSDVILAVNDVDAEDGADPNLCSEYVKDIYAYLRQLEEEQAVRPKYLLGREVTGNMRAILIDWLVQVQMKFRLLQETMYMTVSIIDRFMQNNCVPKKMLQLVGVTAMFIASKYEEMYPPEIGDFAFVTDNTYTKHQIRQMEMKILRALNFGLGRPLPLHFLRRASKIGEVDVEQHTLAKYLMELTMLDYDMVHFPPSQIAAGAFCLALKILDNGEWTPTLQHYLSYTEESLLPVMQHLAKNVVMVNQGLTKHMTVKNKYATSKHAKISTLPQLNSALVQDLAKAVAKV

The IC50 is the concentration needed to halve the response being measured. Turning to `O=C(NC1CCC(O)CC1)O[C@H]1CC[C@@H](c2cc(Nc3ccc4c(c3F)CNS4(=O)=O)n[nH]2)C1` (single isomer, unassigned) [Example 143, cis-3-(3-((4-fluoro-1,1-dioxido-2,3-dihydrobenzo[d]isothiazol-5-yl)amino)-1H-pyrazol-5-yl)cyclopentyl(4-hydroxycyclohexyl)carbamate], the figures for the IC50 on CDK2/Cyclin E1 and at CDK1/Cyclin B1 were 4.9 nM and 242 nM, respectively.

Take `O=C(NCCC(F)(F)F)O[C@H]1CC[C@@H](c2cc(Nc3ccc4c(c3F)CNS4(=O)=O)n[nH]2)C1` (single isomer, unassigned) [Example 154a, cis-3-(3-((4-fluoro-1,1-dioxido-2,3-dihydrobenzo[d]isothiazol-5-yl)amino)-1H-pyrazol-5-yl)cyclopentyl(3,3,3-trifluoropropyl)carbamate]: the IC50 came to 2.3 nM at CDK2/Cyclin E1 and 187 nM against CDK1/Cyclin B1.

For the compound `O=C(NCCC(F)(F)F)O[C@H]1CC[C@@H](c2cc(Nc3ccc4c(c3F)CNS4(=O)=O)n[nH]2)C1` (single isomer, unassigned) [Example 154b, cis-3-(3-((4-fluoro-1,1-dioxido-2,3-dihydrobenzo[d]isothiazol-5-yl)amino)-1H-pyrazol-5-yl)cyclopentyl(3,3,3-trifluoropropyl)carbamate], the figures for the IC50 against CDK2/Cyclin E1 and at CDK1/Cyclin B1 were 3.5 nM and 69 nM, respectively.

Consider `COCC1(NC(=O)O[C@H]2CC[C@@H](c3cc(Nc4ccc5c(c4F)CNS5(=O)=O)n[nH]3)C2)CC1` (single isomer, unassigned) [Example 158a, cis-3-(3-((4-fluoro-1,1-dioxido-2,3-dihydrobenzo[d]isothiazol-5-yl)amino)-1H-pyrazol-5-yl)cyclopentyl(1-(methoxymethyl)cyclopropyl)carbamate], for which the IC50 against CDK2/Cyclin E1 was determined as 5.3 nM; against CDK1/Cyclin B1, 799 nM.

On to `COCC1(NC(=O)O[C@H]2CC[C@@H](c3cc(Nc4ccc5c(c4F)CNS5(=O)=O)n[nH]3)C2)CC1` (single isomer, unassigned) [Example 158b, cis-3-(3-((4-fluoro-1,1-dioxido-2,3-dihydrobenzo[d]isothiazol-5-yl)amino)-1H-pyrazol-5-yl)cyclopentyl(1-(methoxymethyl)cyclopropyl)carbamate], for which the IC50 at CDK2/Cyclin E1 stood at 3.3 nM; against CDK1/Cyclin B1 it was 248 nM.

In the case of `CC1(NC(=O)O[C@H]2CC[C@@H](c3cc(Nc4ccc5c(c4F)CNS5(=O)=O)n[nH]3)C2)CCOC1` (single isomer, unassigned) [Example 162a, cis-3-(3-((4-fluoro-1,1-dioxido-2,3-dihydrobenzo[d]isothiazol-5-yl)amino)-1H-pyrazol-5-yl)cyclopentyl(3-methyltetrahydrofuran-3-yl)carbamate], the IC50 came to 3.4 nM against CDK2/Cyclin E1 and 456 nM against CDK1/Cyclin B1.

For the compound `CC1(NC(=O)O[C@H]2CC[C@@H](c3cc(Nc4ccc5c(c4F)CNS5(=O)=O)n[nH]3)C2)CCOC1` (single isomer, unassigned) [Example 162b, cis-3-(3-((4-fluoro-1,1-dioxido-2,3-dihydrobenzo[d]isothiazol-5-yl)amino)-1H-pyrazol-5-yl)cyclopentyl(3-methyltetrahydrofuran-3-yl)carbamate], the results for the IC50 at CDK2/Cyclin E1 and against CDK1/Cyclin B1 were 1.1 nM and 186 nM, respectively.

For the compound `CC1(NC(=O)O[C@H]2CC[C@@H](c3cc(Nc4ccc5c(c4F)CNS5(=O)=O)n[nH]3)C2)CCOC1` (single isomer, unassigned) [Example 162c, cis-3-(3-((4-fluoro-1,1-dioxido-2,3-dihydrobenzo[d]isothiazol-5-yl)amino)-1H-pyrazol-5-yl)cyclopentyl(3-methyltetrahydrofuran-3-yl)carbamate], the IC50 against CDK2/Cyclin E1 was determined as 3.1 nM; against CDK1/Cyclin B1, 408 nM.

Regarding `CC1(NC(=O)O[C@H]2CC[C@@H](c3cc(Nc4ccc5c(c4F)CNS5(=O)=O)n[nH]3)C2)CCOC1` (single isomer, unassigned) [Example 162d, cis-3-(3-((4-fluoro-1,1-dioxido-2,3-dihydrobenzo[d]isothiazol-5-yl)amino)-1H-pyrazol-5-yl)cyclopentyl(3-methyltetrahydrofuran-3-yl)carbamate], the IC50 at CDK2/Cyclin E1 stood at 3.7 nM; against CDK1/Cyclin B1, 158 nM.

Consider `CC1(NC(=O)O[C@H]2CC[C@@H](c3cc(Nc4ccc5c(c4F)CNS5(=O)=O)n[nH]3)C2)COC1` (single isomer, unassigned) [Example 164a, cis-3-(3-((4-fluoro-1,1-dioxido-2,3-dihydrobenzo[d]isothiazol-5-yl)amino)-1H-pyrazol-5-yl)cyclopentyl(3-methyloxetan-3-yl)carbamate], for which the half-inhibitory concentration (IC50) at CDK2/Cyclin E1 was found to be 4.3 nM; at CDK1/Cyclin B1, 364 nM.

As to `CC1(NC(=O)O[C@H]2CC[C@@H](c3cc(Nc4ccc5c(c4F)CNS5(=O)=O)n[nH]3)C2)COC1` (single isomer, unassigned) [Example 164b, cis-3-(3-((4-fluoro-1,1-dioxido-2,3-dihydrobenzo[d]isothiazol-5-yl)amino)-1H-pyrazol-5-yl)cyclopentyl(3-methyloxetan-3-yl)carbamate], the IC50 at CDK2/Cyclin E1 worked out at 8.4 nM; on CDK1/Cyclin B1, 189 nM.

Turning to `CN1Cc2c(ccc(Nc3cc([C@@H]4CC[C@H](OC(=O)NC5CCC(O)CC5)C4)[nH]n3)c2F)S1(=O)=O` (single isomer, unassigned) [Example 166, cis-3-(3-((4-fluoro-2-methyl-1,1-dioxido-2,3-dihydrobenzo[d]isothiazol-5-yl)amino)-1H-pyrazol-5-yl)cyclopentyl(4-hydroxycyclohexyl)carbamate], the half-inhibitory concentration (IC50) was found to be 2.9 nM on CDK2/Cyclin E1 and 74 nM at CDK1/Cyclin B1.

As to `CN1Cc2c(ccc(Nc3cc([C@@H]4CC[C@H](OC(=O)NC5CCC(O)CC5)C4)[nH]n3)c2F)S1(=O)=O` (single isomer, unassigned) [Example 167, cis-3-(3-((4-fluoro-2-methyl-1,1-dioxido-2,3-dihydrobenzo[d]isothiazol-5-yl)amino)-1H-pyrazol-5-yl)cyclopentyl(4-hydroxycyclohexyl)carbamate], the IC50 against CDK2/Cyclin E1 was 9.2 nM; against CDK1/Cyclin B1, 514 nM.

Take `CC(C)NC(=O)O[C@H]1CC[C@@H](c2cc(Nc3ccc4c(c3F)S(=O)(=O)NC4)n[nH]2)C1` (single isomer, unassigned) [Example 186a, cis-3-(3-((7-fluoro-1,1-dioxido-2,3-dihydrobenzo[d]isothiazol-6-yl)amino)-1H-pyrazol-5-yl)cyclopentyl isopropylcarbamate]: the results for the IC50 at CDK2/Cyclin E1 and against CDK1/Cyclin B1 were 4.8 nM and 255 nM, respectively.

As for `CC(C)NC(=O)O[C@H]1CC[C@@H](c2cc(Nc3ccc4c(c3F)S(=O)(=O)NC4)n[nH]2)C1` (single isomer, unassigned) [Example 186b, cis-3-(3-((7-fluoro-1,1-dioxido-2,3-dihydrobenzo[d]isothiazol-6-yl)amino)-1H-pyrazol-5-yl)cyclopentyl isopropylcarbamate], the IC50 against CDK2/Cyclin E1 came to 1.7 nM; at CDK1/Cyclin B1 it was 44 nM.

For `CCCNC(=O)O[C@H]1CC[C@@H](c2cc(Nc3ccc4c(c3F)S(=O)(=O)NC4)n[nH]2)C1` (single isomer, unassigned) [Example 189a, cis-3-(3-((7-fluoro-1,1-dioxido-2,3-dihydrobenzo[d]isothiazol-6-yl)amino)-1H-pyrazol-5-yl)cyclopentyl propylcarbamate], the IC50 was found to be 10 nM against CDK2/Cyclin E1 and 350 nM against CDK1/Cyclin B1.

`CCCNC(=O)O[C@H]1CC[C@@H](c2cc(Nc3ccc4c(c3F)S(=O)(=O)NC4)n[nH]2)C1` (single isomer, unassigned) [Example 189b, cis-3-(3-((7-fluoro-1,1-dioxido-2,3-dihydrobenzo[d]isothiazol-6-yl)amino)-1H-pyrazol-5-yl)cyclopentyl propylcarbamate]: the IC50 came to 2.7 nM against CDK2/Cyclin E1 and 41 nM against CDK1/Cyclin B1.

Regarding `CCCNC(=O)O[C@H]1CC[C@@H](c2cc(Nc3ccc4c(c3)CS(=O)(=O)N4)n[nH]2)C1` (single isomer, unassigned) [Example 195a, cis-3-(3-((2,2-dioxido-1,3-dihydrobenzo[c]isothiazol-5-yl)amino)-1H-pyrazol-5-yl)cyclopentyl propylcarbamate], the half-maximal inhibitory concentration (IC50) is 12 nM on CDK2/Cyclin E1 and 73 nM against CDK1/Cyclin B1.

Regarding `CC(C)NC(=O)O[C@H]1CC[C@@H](c2cc(Nc3ccc4c(c3)CS(=O)(=O)N4CCO)n[nH]2)C1` (single isomer, unassigned) [Example 219a, cis-3-(3-((1-(2-hydroxyethyl)-2,2-dioxido-1,3-dihydrobenzo[c]isothiazol-5-yl)amino)-1H-pyrazol-5-yl)cyclopentyl isopropylcarbamate], the IC50 against CDK2/Cyclin E1 was 5.4 nM; on CDK1/Cyclin B1, 46 nM.

With `CC(C)NC(=O)O[C@H]1CC[C@@H](c2cc(Nc3ccc4c(c3)CS(=O)(=O)N4CCO)n[nH]2)C1` (single isomer, unassigned) [Example 219b, cis-3-(3-((1-(2-hydroxyethyl)-2,2-dioxido-1,3-dihydrobenzo[c]isothiazol-5-yl)amino)-1H-pyrazol-5-yl)cyclopentyl isopropylcarbamate], the 50% inhibitory concentration (IC50) at CDK2/Cyclin E1 was found to be 3.6 nM; against CDK1/Cyclin B1 it was 28 nM.

Turning to `CC(C)NC(=O)O[C@@H]1CC[C@H](c2cc(Nc3ccc4c(c3)CS(=O)(=O)N4C)n[nH]2)C1` (single isomer, unassigned) [Example 220a], the IC50 stood at 2.6 nM against CDK2/Cyclin E1 and 56 nM on CDK1/Cyclin B1.

Regarding `CC(C)NC(=O)O[C@H]1CC[C@@H](c2cc(Nc3ccc4c(c3)CS(=O)(=O)N4C)n[nH]2)C1` (single isomer, unassigned) [Example 220b], the IC50 on CDK2/Cyclin E1 was found to be 2.6 nM; on CDK1/Cyclin B1, 35 nM.

`CN1c2ccc(Nc3cc([C@@H]4CC[C@H](OC(=O)NC5CCC5)C4)[nH]n3)cc2CS1(=O)=O` (single isomer, unassigned) [Example 227a, cis-3-(3-((1-methyl-2,2-dioxido-1,3-dihydrobenzo[c]isothiazol-5-yl)amino)-1H-pyrazol-5-yl)cyclopentyl cyclobutylcarbamate]: the results for the IC50 against CDK2/Cyclin E1 and on CDK1/Cyclin B1 were 3.5 nM and 156 nM, respectively.
